Measurements taken from patent publication US20250041239A1, “ORALLY DISSOLVING ANTIMICROBIAL FILM COMPOSITIONS & METHODS OF THEIR USE” (ISHA Therapeutics LLC, priority 2022, published 2025).
Values after ≈ are worked out from the molar mass of the structure shown.

Columns and labels:
Candida albicans = test: Agar cup diffusion, zone of inhibition; assay type: cell-based
Text: (§1) This Example provides a description of the antifungal activity of the active pharmaceutical ingredient amphotericin B in the orally dissolvable films disclosed herein compared to that of unmodified amphotericin B. Test organisms utilized in this experiment were Candida albicans and Candida tropicalis. Orally dissolvable amphotericin B-containing film(s) utilized in this Example were made according to the process described in Example 3.
(§2) Two different species of infectious fungal genus Candida were cultured. A first mixture of sabouraud dextrose agar and broth was inoculated with Candida albicans and allowed to sit at room temperature for a period of two days under aerobic conditions. A second mixture of sabouraud dextrose agar and broth was inoculated with Candida tropicalis and allowed to sit at room temperature for 2 days under aerobic conditions. This established two cultures (one each) of the test organisms.
(§3) To standardize the respective cultures, the optical density of each culture was adjusted using a 0.5 McFarland (turbidity) standard, approximating cultures to be approximately […] colony forming units per milliliter (cfu/mL).
(§4) Each respective suspension was mixed until homogeneous to provide a final culture density of about 1×10^4 cfu/mL.
(§5) Agar cup diffusion was used for testing antifungal activity of the test compositions. 0.1 mL of each respective sample of amphotericin B or amphotericin B-containing film was provided in a cylinder. Film concentration was 1.8 mg amphotericin B per film. Each test plate contained two samples (two cylinders). Tests were performed in triplicate (3 plates per test composition). Plates were incubated at room temperature for a period of 2 days as amphotericin B test compositions were allowed to diffuse into the agar layer containing test organism(s).
(§6) Amphotericin B and amphotericin B-containing films were then evaluated for in vitro antifungal activity by measuring the zone of inhibition and microbial inhibition concentration (MIC) of each sample. Results are shown in FIGS. 2A, 2B, and 2C for the test organism Candida albicans and FIGS. 3A, 3B, and 3C for the test organism Candida tropicalis. Therein, amphotericin B samples are indicated as “A” and amphotericin B-containing films are indicated as “B”.

Candida tropicalis = test: Agar cup diffusion, zone of inhibition; assay type: cell-based
Text: as §1, §2, §3, §4, §5, §6

Candida spp. = test: Resazurin microtiter assay (REMA), MIC, Candida spp. tested; assay type: cell-based; conditions: Candida albicans and Candida tropicalis; read-out: average MIC against Candida spp. tested
Method: This Example provides a description of antifungal efficacy testing wherein minimum inhibitor concentration (MIC) of the active pharmaceutical ingredient amphotericin B in the orally dissolvable films disclosed herein compared to that of unmodified amphotericin B. The test organisms utilized in this experiment were Candida tropicalis and Candida albicans.
A resazurin microtiter assay (REMA) assay was performed using orally dissolvable films prepared according to the process described in Example 3 and unmodified amphotericin B. Samples were run in triplicate as Sets 1-3 for each test material against each pathogen.

[1] = physiological pH; cited from earlier work
[2] = 0.1 mL sample, room temperature, 2 days

MIC (Candida spp.): ~1.1 µg/mL (≈ 1.19 µM)
Structure (SMILES): C[C@@H]1[C@H](O)[C@@H](C)/C=C/C=C/C=C/C=C/C=C/C=C/C=C/[C@H](O[C@@H]2O[C@H](C)[C@@H](O)[C@H](N)[C@@H]2O)C[C@@H]2O[C@](O)(C[C@@H](O)C[C@@H](O)[C@H](O)CC[C@@H](O)C[C@@H](O)CC(=O)O[C@H]1C)C[C@H](O)[C@H]2C(=O)O [AmpB, (1R,3S,5R,6R,9R,11R,15S,16R, 17R, 18S, 19E,21E,23E, 25E, 27E,29E,31E,33R,35S,36R,37S)-33-[(2R,3S,4S,5S,6R)-4-amino-3,5-di hydroxy-6-methyloxan-2-yl]oxy-1,3,5,6,9,11,17,37-octahydroxy-15,16,18-trimethyl-13-oxo-14,39-dioxabicyclo[33.3.1]nonatriaconta-19,21,23, 25, 27,29,31-heptaene-36-carboxylic acid]
Zone of Inhibition, Set 1 (Candida albicans; [2]): 19 mm
Zone of Inhibition, Set 2 (Candida albicans; [2]): 19 mm
Zone of Inhibition, Set 3 (Candida albicans; [2]): 20 mm
Effective Zone of Inhibition (Candida albicans; mean of Sets 1-3): 19.33 ± 0.57 mm
Zone of Inhibition, Set 1 (Candida tropicalis; [2]): 20 mm
Zone of Inhibition, Set 2 (Candida tropicalis; [2]): 22 mm
Zone of Inhibition, Set 3 (Candida tropicalis; [2]): 22 mm
Effective Zone of Inhibition (Candida tropicalis; mean of Sets 1-3): 21.33 ± 1.15 mm
solubility in saline [1]: insoluble
